Assay results as given in US20100152215A1, “METHODS OF IDENTIFYING ACTIVATORS OF LYN KINASE” (MELIOR PHARMACEUTICALS I, INC., priority 2007, published 2010).
pEC50: −log10 of the molar value.

Experiments:
Lyn (h) = Lyn (h) (Homo sapiens, UniProt P07948); experiment: Lyn kinase activation, pre-incubation then standard radiometric assay; assay type: biochemical
Lyn = Lyn (Homo sapiens, UniProt P07948); details: 100 μM; ATP 0 to 800 μM
GSK3b = GSK3b (Homo sapiens, UniProt P49841); experiment: kinase screen for inhibition or activation; assay type: biochemical; details: 10 μM
Protocol: (§1) A kinase screen was conducted in which Compound 102 (10 μM) was screened against 49 kinases for inhibition or activation. Any kinase that was activated or inhibited by at least 20% was considered to be a significant effect. Of the 49 kinases screened, Lyn kinase was activated by 51%. In a repeat experiment, Lyn kinase activity was increased by 57%.

CDK2/cyclinA = CDK2/cyclinA (Homo sapiens, UniProt P24941); experiment: kinase screen for inhibition or activation; assay type: biochemical; details: 10 μM
Protocol: as §1

AMPK = experiment: kinase screen for inhibition or activation; assay type: biochemical; details: 10 μM, positive = activation, negative = inhibition
Protocol: as §1

Akt1 = Akt1 (Homo sapiens, UniProt P31749); experiment: kinase screen for inhibition or activation; assay type: biochemical; details: 10 μM
Protocol: as §1

PAK2 = PAK2 (Homo sapiens, UniProt Q13177); experiment: kinase screen for inhibition or activation; assay type: biochemical; details: 10 μM
Protocol: as §1

Syc = Syc (Homo sapiens, UniProt P43405); experiment: kinase screen for inhibition or activation; assay type: biochemical; details: 10 μM
Protocol: as §1

MAPKAP5 = MAPKAP5 (Homo sapiens, UniProt Q8IW41); experiment: kinase screen for inhibition or activation; assay type: biochemical; details: 10 μM
Protocol: as §1

ROCK2 = ROCK2 (Homo sapiens, UniProt O75116); experiment: kinase screen for inhibition or activation; assay type: biochemical; details: 10 μM
Protocol: as §1

Akt2 = Akt2 (Homo sapiens, UniProt P31751); experiment: kinase screen for inhibition or activation; assay type: biochemical; details: 10 μM
Protocol: as §1

AurA = AurA (Homo sapiens, UniProt O14965); experiment: kinase screen for inhibition or activation; assay type: biochemical; details: 10 μM
Protocol: as §1

MET = MET (Homo sapiens, UniProt P08581); experiment: kinase screen for inhibition or activation; assay type: biochemical; details: 10 μM
Protocol: as §1

Src = Src (Homo sapiens, UniProt P12931); experiment: kinase screen for inhibition or activation; assay type: biochemical; details: 10 μM
Protocol: as §1

RSK1 = RSK1 (Homo sapiens, UniProt Q15418); experiment: kinase screen for inhibition or activation; assay type: biochemical; details: 10 μM
Protocol: as §1

MAPKAP2 = MAPKAP2 (Homo sapiens, UniProt P49137); experiment: kinase screen for inhibition or activation; assay type: biochemical; details: 10 μM
Protocol: as §1

FGFR3 = FGFR3 (Homo sapiens, UniProt P22607); experiment: kinase screen for inhibition or activation; assay type: biochemical; details: 10 μM
Protocol: as §1

PKCz = PKCz (Homo sapiens, UniProt Q05513); experiment: kinase screen for inhibition or activation; assay type: biochemical; details: 10 μM
Protocol: as §1

MAPK3 (p38) = experiment: kinase screen for inhibition or activation; assay type: biochemical; details: 10 μM
Protocol: as §1

MAPK14 (P38) = MAPK14 (P38) (Homo sapiens, UniProt Q16539); experiment: kinase screen for inhibition or activation; assay type: biochemical; details: 10 μM
Protocol: as §1

EphA2 = EphA2 (Homo sapiens, UniProt P29317); experiment: kinase screen for inhibition or activation; assay type: biochemical; details: 10 μM
Protocol: as §1

CHK2 = CHK2 (Homo sapiens, UniProt O96017); experiment: kinase screen for inhibition or activation; assay type: biochemical; details: 10 μM
Protocol: as §1

Fyn = Fyn (Homo sapiens, UniProt P06241); experiment: kinase screen for inhibition or activation; assay type: biochemical; details: 10 μM
Protocol: as §1

KDR (FLK1, VEGFR2) = KDR (FLK1, VEGFR2) (Homo sapiens, UniProt P35968); experiment: kinase screen for inhibition or activation; assay type: biochemical; details: 10 μM
Protocol: as §1

IKKb = IKKb (Homo sapiens, UniProt O14920); experiment: kinase screen for inhibition or activation; assay type: biochemical; details: 10 μM
Protocol: as §1

InsR = InsR (Homo sapiens, UniProt P06213); experiment: kinase screen for inhibition or activation; assay type: biochemical; details: 10 μM
Protocol: as §1

cRAF = cRAF (Homo sapiens, UniProt P04049); experiment: kinase screen for inhibition or activation; assay type: biochemical; details: 10 μM
Protocol: as §1

CK1d = CK1d (Homo sapiens, UniProt P48730); experiment: kinase screen for inhibition or activation; assay type: biochemical; details: 10 μM
Protocol: as §1

SGK1 = SGK1 (Homo sapiens, UniProt O00141); experiment: kinase screen for inhibition or activation; assay type: biochemical; details: 10 μM
Protocol: as §1

Flt3 = Flt3 (Homo sapiens, UniProt P36888); experiment: kinase screen for inhibition or activation; assay type: biochemical; details: 10 μM
Protocol: as §1

JNK2 = JNK2 (Homo sapiens, UniProt P45984); experiment: kinase screen for inhibition or activation; assay type: biochemical; details: 10 μM
Protocol: as §1

PDK1 = PDK1 (Homo sapiens, UniProt O15530); experiment: kinase screen for inhibition or activation; assay type: biochemical; details: 10 μM
Protocol: as §1

MAPK1 = MAPK1 (Homo sapiens, UniProt P28482); experiment: kinase screen for inhibition or activation; assay type: biochemical; details: 10 μM
Protocol: as §1

MSK1 = MSK1 (Homo sapiens, UniProt O75582); experiment: kinase screen for inhibition or activation; assay type: biochemical; details: 10 μM
Protocol: as §1

CaMK4 = CaMK4 (Homo sapiens, UniProt Q16566); experiment: kinase screen for inhibition or activation; assay type: biochemical; details: 10 μM
Protocol: as §1

BTK = BTK (Homo sapiens, UniProt Q06187); experiment: kinase screen for inhibition or activation; assay type: biochemical; details: 10 μM
Protocol: as §1

IRAK4 = IRAK4 (Homo sapiens, UniProt Q9NWZ3); experiment: kinase screen for inhibition or activation; assay type: biochemical; details: 10 μM
Protocol: as §1

cKit = cKit (Homo sapiens, UniProt P10721); experiment: kinase screen for inhibition or activation; assay type: biochemical; details: 10 μM
Protocol: as §1

Lyn (h), sequence (P07948 whole entry): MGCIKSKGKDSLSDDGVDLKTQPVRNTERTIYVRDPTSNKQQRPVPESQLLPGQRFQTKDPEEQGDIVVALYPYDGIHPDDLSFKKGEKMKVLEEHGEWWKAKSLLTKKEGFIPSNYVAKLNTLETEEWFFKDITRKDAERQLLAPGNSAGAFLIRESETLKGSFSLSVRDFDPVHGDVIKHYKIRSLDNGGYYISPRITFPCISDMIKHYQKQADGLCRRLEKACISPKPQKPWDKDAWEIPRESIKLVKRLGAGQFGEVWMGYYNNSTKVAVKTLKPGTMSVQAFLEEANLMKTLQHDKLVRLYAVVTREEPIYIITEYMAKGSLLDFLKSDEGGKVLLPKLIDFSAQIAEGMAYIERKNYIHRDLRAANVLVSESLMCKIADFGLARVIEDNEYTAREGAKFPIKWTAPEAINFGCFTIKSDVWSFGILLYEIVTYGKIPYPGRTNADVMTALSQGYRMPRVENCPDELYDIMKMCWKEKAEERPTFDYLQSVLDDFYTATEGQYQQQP
Lyn, sequence (P07948 whole entry): as above
FGFR3, sequence (P22607 23-806, species assumed): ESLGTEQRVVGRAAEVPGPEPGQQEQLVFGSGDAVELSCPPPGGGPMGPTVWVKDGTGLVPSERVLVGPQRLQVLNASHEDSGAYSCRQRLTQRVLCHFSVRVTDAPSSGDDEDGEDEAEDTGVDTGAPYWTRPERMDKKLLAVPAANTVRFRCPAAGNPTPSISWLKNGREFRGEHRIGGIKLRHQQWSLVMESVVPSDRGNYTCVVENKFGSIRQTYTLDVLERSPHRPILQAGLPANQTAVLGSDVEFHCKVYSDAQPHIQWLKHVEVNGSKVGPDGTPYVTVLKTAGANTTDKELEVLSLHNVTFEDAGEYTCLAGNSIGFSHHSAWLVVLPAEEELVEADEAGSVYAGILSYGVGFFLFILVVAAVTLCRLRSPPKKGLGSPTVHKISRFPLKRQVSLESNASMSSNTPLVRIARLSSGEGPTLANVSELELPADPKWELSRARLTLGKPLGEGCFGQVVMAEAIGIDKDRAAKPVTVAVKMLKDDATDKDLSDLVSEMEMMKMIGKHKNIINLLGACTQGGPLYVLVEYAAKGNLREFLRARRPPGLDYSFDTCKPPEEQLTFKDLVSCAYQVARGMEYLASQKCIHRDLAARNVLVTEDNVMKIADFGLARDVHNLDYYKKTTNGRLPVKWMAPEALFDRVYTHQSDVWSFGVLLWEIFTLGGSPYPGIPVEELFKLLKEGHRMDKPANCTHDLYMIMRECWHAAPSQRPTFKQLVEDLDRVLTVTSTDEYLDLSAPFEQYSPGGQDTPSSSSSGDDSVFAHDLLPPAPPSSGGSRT
PAK2, sequence (Q13177 whole entry, species assumed): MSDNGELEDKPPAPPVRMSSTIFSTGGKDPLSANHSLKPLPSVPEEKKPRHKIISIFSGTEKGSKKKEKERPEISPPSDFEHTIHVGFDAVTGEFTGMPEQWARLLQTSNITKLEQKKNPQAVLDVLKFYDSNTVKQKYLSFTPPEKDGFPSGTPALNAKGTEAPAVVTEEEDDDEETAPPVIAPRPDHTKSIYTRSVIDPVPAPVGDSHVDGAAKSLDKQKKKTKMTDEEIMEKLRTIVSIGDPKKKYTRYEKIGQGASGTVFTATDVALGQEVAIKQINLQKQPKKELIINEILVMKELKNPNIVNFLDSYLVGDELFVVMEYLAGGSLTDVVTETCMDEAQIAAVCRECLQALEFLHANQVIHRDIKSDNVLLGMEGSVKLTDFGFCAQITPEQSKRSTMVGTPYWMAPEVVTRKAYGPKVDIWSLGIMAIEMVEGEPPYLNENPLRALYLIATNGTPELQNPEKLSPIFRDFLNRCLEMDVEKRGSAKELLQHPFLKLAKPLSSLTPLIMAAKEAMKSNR
MAPKAP5, sequence (Q8IW41 whole entry): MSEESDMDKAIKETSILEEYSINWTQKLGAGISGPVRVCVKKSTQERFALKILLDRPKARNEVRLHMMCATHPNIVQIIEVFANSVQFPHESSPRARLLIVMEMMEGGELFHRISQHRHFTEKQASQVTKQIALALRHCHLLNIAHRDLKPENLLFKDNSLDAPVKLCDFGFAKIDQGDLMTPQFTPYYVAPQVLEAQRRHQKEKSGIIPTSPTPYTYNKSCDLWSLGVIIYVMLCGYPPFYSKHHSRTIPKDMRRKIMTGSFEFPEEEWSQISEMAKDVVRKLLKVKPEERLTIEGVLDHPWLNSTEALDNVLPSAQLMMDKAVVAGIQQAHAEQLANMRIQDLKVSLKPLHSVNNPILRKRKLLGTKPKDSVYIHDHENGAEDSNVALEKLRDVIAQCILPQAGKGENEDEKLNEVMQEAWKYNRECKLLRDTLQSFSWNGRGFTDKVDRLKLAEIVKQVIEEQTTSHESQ
SGK1, sequence (O00141 whole entry, species assumed): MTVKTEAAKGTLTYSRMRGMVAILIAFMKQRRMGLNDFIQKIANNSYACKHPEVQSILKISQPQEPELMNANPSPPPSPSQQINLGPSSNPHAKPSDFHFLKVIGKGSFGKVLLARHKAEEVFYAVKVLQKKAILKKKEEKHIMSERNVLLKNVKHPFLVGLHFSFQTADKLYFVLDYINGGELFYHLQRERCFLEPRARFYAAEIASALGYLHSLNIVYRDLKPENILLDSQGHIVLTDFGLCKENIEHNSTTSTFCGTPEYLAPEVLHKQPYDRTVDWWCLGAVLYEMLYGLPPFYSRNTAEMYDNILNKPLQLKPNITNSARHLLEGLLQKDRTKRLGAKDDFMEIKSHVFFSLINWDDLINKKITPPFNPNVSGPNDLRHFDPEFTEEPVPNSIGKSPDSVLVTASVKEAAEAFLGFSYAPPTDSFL
EphA2, sequence (P29317 24-976, species assumed): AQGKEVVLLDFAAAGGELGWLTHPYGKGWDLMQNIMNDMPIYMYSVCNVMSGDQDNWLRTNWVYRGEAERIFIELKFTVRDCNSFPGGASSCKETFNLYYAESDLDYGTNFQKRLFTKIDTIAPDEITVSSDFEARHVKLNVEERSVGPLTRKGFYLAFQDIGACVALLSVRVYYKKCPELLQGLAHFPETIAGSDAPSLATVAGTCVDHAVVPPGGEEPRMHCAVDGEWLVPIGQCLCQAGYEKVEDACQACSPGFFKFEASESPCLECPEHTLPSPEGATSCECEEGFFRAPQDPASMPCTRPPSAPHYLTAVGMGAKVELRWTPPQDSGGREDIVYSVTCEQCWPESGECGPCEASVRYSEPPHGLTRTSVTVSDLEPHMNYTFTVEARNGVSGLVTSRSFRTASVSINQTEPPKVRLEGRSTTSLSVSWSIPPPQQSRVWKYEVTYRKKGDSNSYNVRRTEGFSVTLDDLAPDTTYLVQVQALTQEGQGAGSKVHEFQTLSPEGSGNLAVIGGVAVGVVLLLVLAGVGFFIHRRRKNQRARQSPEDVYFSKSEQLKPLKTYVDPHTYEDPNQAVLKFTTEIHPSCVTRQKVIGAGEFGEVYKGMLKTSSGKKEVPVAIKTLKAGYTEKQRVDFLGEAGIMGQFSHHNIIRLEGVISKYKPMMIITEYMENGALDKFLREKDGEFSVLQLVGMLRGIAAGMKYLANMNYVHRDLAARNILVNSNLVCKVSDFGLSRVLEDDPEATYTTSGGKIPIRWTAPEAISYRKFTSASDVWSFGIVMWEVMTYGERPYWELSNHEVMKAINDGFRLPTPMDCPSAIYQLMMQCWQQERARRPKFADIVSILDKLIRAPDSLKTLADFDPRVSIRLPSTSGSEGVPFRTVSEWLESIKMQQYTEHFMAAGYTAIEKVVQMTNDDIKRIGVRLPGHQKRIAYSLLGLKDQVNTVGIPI
RSK1, sequence (Q15418 whole entry, species assumed): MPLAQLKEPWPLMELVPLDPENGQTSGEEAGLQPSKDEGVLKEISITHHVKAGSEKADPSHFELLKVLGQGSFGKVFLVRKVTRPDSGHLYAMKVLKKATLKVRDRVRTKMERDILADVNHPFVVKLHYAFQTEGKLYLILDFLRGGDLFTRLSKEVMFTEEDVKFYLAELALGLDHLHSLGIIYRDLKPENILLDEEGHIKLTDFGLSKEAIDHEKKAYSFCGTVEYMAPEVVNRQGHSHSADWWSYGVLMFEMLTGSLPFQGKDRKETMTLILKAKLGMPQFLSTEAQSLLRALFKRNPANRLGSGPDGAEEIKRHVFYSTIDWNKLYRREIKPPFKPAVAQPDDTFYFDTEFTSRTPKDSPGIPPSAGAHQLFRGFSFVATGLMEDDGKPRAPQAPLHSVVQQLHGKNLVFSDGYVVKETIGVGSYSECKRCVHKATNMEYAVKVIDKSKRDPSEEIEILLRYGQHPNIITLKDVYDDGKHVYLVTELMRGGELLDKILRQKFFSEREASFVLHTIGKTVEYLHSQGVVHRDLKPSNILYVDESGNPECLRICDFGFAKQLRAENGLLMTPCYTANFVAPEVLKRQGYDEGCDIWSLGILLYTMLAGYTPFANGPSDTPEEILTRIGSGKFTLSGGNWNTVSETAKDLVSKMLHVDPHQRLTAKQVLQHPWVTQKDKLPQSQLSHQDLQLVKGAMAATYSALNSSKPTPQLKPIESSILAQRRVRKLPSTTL
Akt1, sequence (P31749 whole entry, species assumed): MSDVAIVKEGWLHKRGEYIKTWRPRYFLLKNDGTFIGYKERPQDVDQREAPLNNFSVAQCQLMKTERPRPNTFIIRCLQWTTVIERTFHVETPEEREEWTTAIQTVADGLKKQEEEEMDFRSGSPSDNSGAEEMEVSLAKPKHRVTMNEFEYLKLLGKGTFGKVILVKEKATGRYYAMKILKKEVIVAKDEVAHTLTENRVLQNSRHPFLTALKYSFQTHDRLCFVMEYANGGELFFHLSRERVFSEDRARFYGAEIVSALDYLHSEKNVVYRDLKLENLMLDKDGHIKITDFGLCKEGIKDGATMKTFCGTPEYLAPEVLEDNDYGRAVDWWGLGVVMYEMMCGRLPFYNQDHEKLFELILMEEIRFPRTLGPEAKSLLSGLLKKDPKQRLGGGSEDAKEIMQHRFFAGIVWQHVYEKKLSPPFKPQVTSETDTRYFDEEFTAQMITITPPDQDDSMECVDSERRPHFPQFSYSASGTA

With `Cc1cccc(Oc2cnc(=O)[nH]c2)c1` [Compound 102] the “activity of Lyn kinase (h) relative to the DMSO control” value (Lyn (h); 100 μM, 30 minutes pre-incubation on ice, 10 μM ATP, 40 minutes at room temperature) was “more than 3 fold”, the “concentration dependence of Lyn kinase (h) activity” value (Lyn (h); 1, 3, 10, 30 and 100 μM) was “increased with Compound 102 concentration in a dose-dependent manner” and the pEC50 (Lyn (h); 30 minutes pre-incubation on ice, 10 μM ATP) was 6.19. The “effect on the Km for ATP” value (Lyn) was “did not alter the Km for ATP”, the “increase of the Vmax of Lyn kinase” value (Lyn) was 3 fold and the “COMPOUND 102 ACTIVITY (% KINASE ACTIVITY)” value (GSK3b) was 2.47%. The “COMPOUND 102 ACTIVITY (% KINASE ACTIVITY)” value (CDK2/cyclinA) was −3.93%, the “COMPOUND 102 ACTIVITY (% KINASE ACTIVITY)” value (AMPK) was −0.95% and the “COMPOUND 102 ACTIVITY (% KINASE ACTIVITY)” value (Akt1) was 1.51%. The “COMPOUND 102 ACTIVITY (% KINASE ACTIVITY)” value (PAK2) was 1.55%, the “COMPOUND 102 ACTIVITY (% KINASE ACTIVITY)” value (Syc) was 11.12% and the “COMPOUND 102 ACTIVITY (% KINASE ACTIVITY)” value (MAPKAP5) was 0.79%. The “COMPOUND 102 ACTIVITY (% KINASE ACTIVITY)” value (ROCK2) was −3.05%, the “COMPOUND 102 ACTIVITY (% KINASE ACTIVITY)” value (Akt2) was −6.83% and the “COMPOUND 102 ACTIVITY (% KINASE ACTIVITY)” value (AurA) was −12.21%. The “COMPOUND 102 ACTIVITY (% KINASE ACTIVITY)” value (MET) was 9.88%, the “COMPOUND 102 ACTIVITY (% KINASE ACTIVITY)” value (Src) was 4.56% and the “COMPOUND 102 ACTIVITY (% KINASE ACTIVITY)” value (RSK1) was 1.72%. The “COMPOUND 102 ACTIVITY (% KINASE ACTIVITY)” value (MAPKAP2) was −13.04%, the “COMPOUND 102 ACTIVITY (% KINASE ACTIVITY)” value (FGFR3) was −1.58% and the “COMPOUND 102 ACTIVITY (% KINASE ACTIVITY)” value (PKCz) was 9.05%. For the same compound, the “COMPOUND 102 ACTIVITY (% KINASE ACTIVITY)” value (MAPK3 (p38)) was −6.05%, the “COMPOUND 102 ACTIVITY (% KINASE ACTIVITY)” value (MAPK14 (P38)) was 1.74% and the “COMPOUND 102 ACTIVITY (% KINASE ACTIVITY)” value (EphA2) was 1.03%. The “COMPOUND 102 ACTIVITY (% KINASE ACTIVITY)” value (CHK2) was −6.17%, the “COMPOUND 102 ACTIVITY (% KINASE ACTIVITY)” value (Fyn) was −4.64% and the “COMPOUND 102 ACTIVITY (% KINASE ACTIVITY)” value (KDR (FLK1, VEGFR2)) was 0%. The “COMPOUND 102 ACTIVITY (% KINASE ACTIVITY)” value (IKKb) was −6.26%, the “COMPOUND 102 ACTIVITY (% KINASE ACTIVITY)” value (InsR) was 16.92% and the “COMPOUND 102 ACTIVITY (% KINASE ACTIVITY)” value (cRAF) was 5.08%. For the same compound, the “COMPOUND 102 ACTIVITY (% KINASE ACTIVITY)” value (CK1d) was −1.5%, the “COMPOUND 102 ACTIVITY (% KINASE ACTIVITY)” value (SGK1) was −19.24% and the “COMPOUND 102 ACTIVITY (% KINASE ACTIVITY)” value (Flt3) was 7.34%. For the same compound, the “COMPOUND 102 ACTIVITY (% KINASE ACTIVITY)” value (JNK2) was −4.8%, the “COMPOUND 102 ACTIVITY (% KINASE ACTIVITY)” value (PDK1) was −2.63% and the “COMPOUND 102 ACTIVITY (% KINASE ACTIVITY)” value (MAPK1) was 0.6%. For the same compound, the “COMPOUND 102 ACTIVITY (% KINASE ACTIVITY)” value (MSK1) was 1.55%, the “COMPOUND 102 ACTIVITY (% KINASE ACTIVITY)” value (CaMK4) was 17.35% and the “COMPOUND 102 ACTIVITY (% KINASE ACTIVITY)” value (BTK) was 10%. The “COMPOUND 102 ACTIVITY (% KINASE ACTIVITY)” value (IRAK4) was 2.25% and the “COMPOUND 102 ACTIVITY (% KINASE ACTIVITY)” value (cKit) was 18.79%.
